Results on 21 compounds are retold here after ChEMBL document CHEMBL1157883, “Synthesis and biological evaluation of novel 2-arylalkylthio-4-amino-6-benzyl pyrimidines as potent HIV-1 non-nucleoside reverse transcriptase inhibitors” (Bioorg Med Chem Lett, 2010).

Calls of active or inactive are those of the source. No cut-off for these calls is given here.

Assay [1] has as its target Human immunodeficiency virus type 1 reverse transcriptase (Human immunodeficiency virus 1) (UniProt Q72547). Nature of the assay: Inhibition of biotin-dUTP labeled HIV-1 reverse transcriptase at 100 uM after 30 mins colorimetric streptavidin alkaline phosphatase reporter system.
Assay [2] deals with Human immunodeficiency virus type 1 reverse transcriptase (Human immunodeficiency virus 1, UniProt Q72547). Nature of the assay: Inhibition of biotin-dUTP labeled HIV-1 reverse transcriptase after 30 mins colorimetric streptavidin alkaline phosphatase reporter system.
Assay [3] addresses Human immunodeficiency virus type 1 reverse transcriptase (Human immunodeficiency virus 1) (UniProt Q72547). Nature of the assay: Inhibition of HIV1 reverse transcriptase.
The subject of assay [4] is Human immunodeficiency virus 1. Nature of the assay: Antiviral activity against HIV1 in cell based assay. It is filed as functional, organism-based.
In assay [5] the test system is Human immunodeficiency virus 1. Put plainly: Antiviral activity against pluri-resistant HIV1 IRLL98 in cell based assay. The format is functional, organism-based. The settings on record: Human immunodeficiency virus 1, IRLL98.

With `CC(C)(C)c1ccc(CSc2nc(Cc3ccccc3)cc(=O)[nH]2)cc1`, in assay [1], the inhibition result was “inactive”.

Compound `Nc1cc(Cc2ccccc2)nc(SCc2ccccc2)n1` showed a half-inhibitory concentration (IC50) in assay [2] of over 100000 nM. This compound had an ID50 in assay [3] of 26 nM. Moreover, the 50% effective concentration (EC50) was under 0.14 nM in assay [4] and 0.22 nM in assay [5].

For `CC(Sc1nc(Cl)cc(Cc2ccccc2)n1)c1ccccc1` (stereo unspecified), in assay [1], the inhibition entry is “inactive”.

In turn, `Cc1cccc(CSc2nc(Cl)cc(Cc3ccccc3)n2)c1` gave a half-inhibitory concentration (IC50) in assay [2] of 90800 nM.

Consider `Clc1cc(Cc2ccccc2)nc(SCc2ccc3ccccc3c2)n1`, for which the inhibition entry in assay [1] was “inactive”.

Take `CC(C)(C)c1ccc(CSc2nc(N)cc(Cc3ccccc3)n2)cc1`: the inhibition result in assay [1] was “inactive”. The ID50 in assay [3] amounted to 26 nM. The results for the EC50 in assay [4] and in assay [5] were under 0.14 nM and 0.22 nM, respectively.

As to `Cc1ccccc1CSc1nc(Cl)cc(Cc2ccccc2)n1`, the inhibition entry in assay [1] was “inactive”.

Take `Nc1cc(Cc2ccccc2)nc(SCCCc2ccccc2)n1`: in assay [1], the inhibition entry was “inactive”. In addition, the values for the EC50 in assay [4] and in assay [5] were under 0.14 nM and 0.22 nM, respectively.

In the case of `Nc1cc(Cc2ccccc2)nc(SCCc2ccccc2)n1`, the inhibition result in assay [1] is “inactive”. The EC50 in assay [4] was under 0.14 nM; in assay [5], 0.22 nM.

Take `Clc1cc(Cc2ccccc2)nc(SCc2ccccc2)n1`: in assay [2], the half-inhibitory concentration (IC50) was over 100000 nM.

For the compound `Nc1cc(Cc2ccccc2)nc(SCc2ccc3ccccc3c2)n1`, the IC50 in assay [2] was found to be 17100 nM. This compound also returned an ID50 in assay [3] of 26 nM. Moreover, the EC50 in assay [4] is under 0.14 nM; in assay [5] it was 0.22 nM.

On to `Cc1cccc(CSc2nc(N)cc(Cc3ccccc3)n2)c1`, for which, in assay [2], inhibition was half-maximal at 18000 nM (IC50). Also, the ID50 in assay [3] was 26 nM. Moreover, the EC50 in assay [4] is under 0.14 nM; in assay [5], 0.22 nM.

On to `CC(C)(C)c1ccc(CSc2nc(Cl)cc(Cc3ccccc3)n2)cc1`, for which the inhibition result in assay [1] was “inactive”.

Take `COc1cccc(CSc2nc(Cl)cc(Cc3ccccc3)n2)c1`: the inhibition entry in assay [1] was “inactive”.

Take `O=c1cc(Cc2ccccc2)nc(SCc2ccccc2)[nH]1`: the inhibition entry in assay [1] is “inactive”.

`Clc1cc(Cc2ccccc2)nc(SCCc2ccccc2)n1`: the inhibition result in assay [1] was “inactive”.

The compound `CC(Sc1nc(N)cc(Cc2ccccc2)n1)c1ccccc1` (stereo unspecified) came in with a 50% inhibitory concentration (IC50) in assay [2] of 63900 nM. Moreover, the ID50 in assay [3] was 26 nM. Besides, the concentration for a half-maximal effect (EC50) in assay [4] is under 0.14 nM; in assay [5], 0.22 nM.

With `Cc1ccccc1CSc1nc(N)cc(Cc2ccccc2)n1`, the IC50 in assay [2] amounted to 29900 nM. The compound further came in with an ID50 in assay [3] of 26 nM. Moreover, the EC50 in assay [4] is under 0.14 nM; in assay [5], 0.22 nM.

Consider `COc1cccc(CSc2nc(N)cc(Cc3ccccc3)n2)c1`, for which the 50% inhibitory concentration (IC50) in assay [2] was over 100000 nM. This compound also showed an ID50 in assay [3] of 26 nM. Moreover, the EC50 in assay [4] was under 0.14 nM; in assay [5], 0.22 nM.

As for `Clc1cc(Cc2ccccc2)nc(SCCCc2ccccc2)n1`, in assay [1], the inhibition entry is “inactive”.

As to `O=c1cc(Cc2ccccc2)nc(SCc2ccc3ccccc3c2)[nH]1`, in assay [1], the inhibition result is “inactive”.

In general, IC50 refers to the concentration at which inhibition is half-maximal. The low end stands for inhibition by little substance, the high end for a need for much substance. In general, EC50 refers to the concentration that produces a half-maximal response. A high value points to weaker potency.
